{
  "source": "patent US9549554B2",
  "about": "“Insecticidal synergistic combinations of phthaldiamide derivatives and abamectin, emamectin, lepimectin or milbemectin” (BAYER CROPSCIENCE AKTIENGESELLSCHAFT, priority 2013, dated 2017)",
  "key": {"Phaedon cochleariae": {"test_system": "Phaedon cochleariae", "experiment": "Phaedon cochleariae spray test (Chinese cabbage leaf disks)", "assay_type": "in vivo", "conditions": "mustard beetle larvae", "source_text": "Solvent: 78.0 parts by weight of acetone\n• 1.5 parts by weight of dimethylformamide Emulsifier: 0.5 parts by weight of alkylaryl polyglycolether\nOnce dry, the leaf disks are infested with mustard beetle larvae (Phaedon cochleariae).\n100% means all beetle larvae have been killed and 0% means none of the beetle larvae have been killed."}, "Myzus persicae": {"test_system": "Myzus persicae", "experiment": "Myzus persicae spray test (infested cabbage leaves)", "assay_type": "in vivo", "conditions": "green peach aphid", "experimental": "Solvent: 7 parts by weight of dimethylformamide\nEmulsifier: alkylaryl polyglycolether\nFurther test concentrations are prepared by dilution with emulsifier containing water Ammonium salt and/or penetration enhancer in a dosage of 1000 ppm are added to the desired concentration if necessary.\nCabbage leaves (Brassica oleracea) which are heavily infested by the green peach aphid (Myzus persicae) are treated by being sprayed with the preparation of the active compound of the desired concentration."}, "Spodoptera frugiperda": {"test_system": "Spodoptera frugiperda", "experiment": "whole plant or invertebrate", "experimental": "Solvent: 78.0 parts by weight acetone\n• 1.5 parts by weight dimethylformamide Emulsifier: 0.5 parts by weight alkylarylpolyglycolether\nTo produce a suitable preparation of a spore suspension the spores are diluted with emulsifier-containing water to the desired concentration.\nMaize (Zea mais) leaf sections are sprayed with a preparation of the active ingredient of the desired concentration. Once dry, the leaf sections are infested with fall armyworm larvae (Spodoptera frugiperda).\nAfter the specified period of time, mortality in % is determined. 100% means all caterpillars have been killed and 0% means none of the caterpillars have been killed. The mortality values determined thus are recalculated using the Colby-formula (see sheet 1)."}, "[1]": {"conditions": "Spodoptera frugiperda, in Zea mays, 144 h, read-out: Efficacy in % after 6d (mortality)"}},
  "data": [
    {"compound": "Cc1cc(C(F)(C(F)(F)F)C(F)(F)F)ccc1NC(=O)c1cccc(Cl)c1C(=O)NC(C)(C)C#N", "note": "[(I-5)]", "values": [
      {"measurement": "mortality at 4 g/ha", "setting": "Phaedon cochleariae; Phaedon cochleariae, foliar, 144 h, 4 g ai/ha, after 6 d, read-out: Efficacy in % after 6d (mortality)", "value": 0, "unit": "%"},
      {"measurement": "mortality at 3 ppm", "setting": "Myzus persicae; Myzus persicae, 144 h, 3 ppm, after 6 d, read-out: Efficacy in % after 6d (mortality)", "value": 0, "unit": "%"},
      {"measurement": "mortality at 75 ppm", "setting": "Myzus persicae; Myzus persicae, 144 h, 75 ppm, after 6 d, read-out: Efficacy in % after 6d (mortality)", "value": 0, "unit": "%"},
      {"measurement": "mortality at 0.25 g/ha", "setting": "Spodoptera frugiperda; [1]", "value": 0, "unit": "%"},
      {"measurement": "mortality at 3 g/ha", "setting": "Spodoptera frugiperda; [1]", "value": 33, "unit": "%"}
    ]},
    {"compound": "Abamectin [Abamectin (II-1), reference compound]", "values": [
      {"measurement": "Efficacy in % after 6d (mortality)", "setting": "Phaedon cochleariae; 0.032 g ai/ha", "value": 0, "unit": "%"},
      {"measurement": "Efficacy in % after 6d (mortality)", "setting": "Spodoptera frugiperda; 15 g ai/ha, fall armyworm larvae, after 6 d", "value": 0, "unit": "%"}
    ]},
    {"compound": "Emamectin benzoate [Emamectin-Benzoate, reference compound]", "values": [
      {"measurement": "Efficacy in % after 6d (mortality)", "setting": "Myzus persicae; 15 ppm", "value": 15, "unit": "%"}
    ]}
  ]
}
